# Test: recombinant UMI read abundance after kanamycin selection (control-corrected) (log10(CPM+1)); higher = more efficient recombination; extreme values may be limits of the assay; sequences stand for … in AGTGCAGAGAAAATCGGCCAGTTTTCTCTGCCTGCAGTCCGCATGCCGTGGGACCCCTTGGGTTCTAACCTGTTGCCTAGATTTATGCAGCGGACTGCCTTTCTCCCAAAGTGATAAACCGG…AGGTTGGTTTCACT; site = the 11-nt donor
# Method in brief: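 For the IS621 bridge recombinase, a pooled Escherichia coli screen tested donor and donor-binding-loop pairs. Cells received the pair library together with a target plasmid encoding a fixed target and T7-inducible recombinase, then went onto IPTG (0.07 mM) plus kanamycin or unselected plates in duplicate. After PCR across the donor–target junction and sequencing, recombinant UMI counts were normalized to CPM, averaged, and scaled by control-derived factors. Each value is given as log10(CPM+1).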
row,Sequence,recombinant UMI read abundance (log10)
1,GGTGCAGCATGGACCGGTTTTCCCGGTAATCCGTATTTGGA (site GGTGCAGCTTC),0.0152
2,GGTGCCACATGGACCGGTTTTCCCGGTAATCCGTATTTGGT (site GGTGCCACTAC),0.406
3,GGTGCGACATGGACCGGTTTTCCCGGTAATCCGTATTTGTT (site GGTGCGACTAA),0.345
4,GGTGCTACATGGACCGGTTTTCCCGGTAATCCGTATTTGGA (site GGTGCTACTTC),0.449
5,GGTGGTCCATGGACCGGTTTTCCCGGTAATCCGTATTTGCC (site GGTGGTCCTGG),0
6,GGTGTCCCATGGACCGGTTTTCCCGGTAATCCGTATTTGAA (site GGTGTCCCTTT),0.0114
7,GGTGTGGCATGGACCGGTTTTCCCGGTAATCCGTATTTGTT (site GGTGTGGCTAA),0.894
8,GGTGTTTCATGGACCGGTTTTCCCGGTAATCCGTATTTGGT (site GGTGTTTCTAC),0.556
9,GGTTAAACATGGACCGGTTTTCCCGGTAATCCGTATTTGGT (site GGTTAAACTAC),0.137
10,GGTTAGGCATGGACCGGTTTTCCCGGTAATCCGTATTTGAG (site GGTTAGGCTCT),0.952
11,GGTTATCCATGGACCGGTTTTCCCGGTAATCCGTATTTGCT (site GATTATCCTAG),0
12,GGTTATCCATGGACCGGTTTTCCCGGTAATCCGTATTTGCT (site GCTTATCCTAG),0.196
13,GGTTATCCATGGACCGGTTTTCCCGGTAATCCGTATTTGCT (site GGTTATCCTAG),0
14,GGTTATCCATGGACCGGTTTTCCCGGTAATCCGTATTTGCT (site GTTTATCCTAG),0
15,GGTTCGCCATGGACCGGTTTTCCCGGTAATCCGTATTTGCG (site GGTTCGCCTCG),0
16,GGTTGCCCATGGACCGGTTTTCCCGGTAATCCGTATTTGAT (site GATTGCCCTAT),0.0175
17,GGTTGCCCATGGACCGGTTTTCCCGGTAATCCGTATTTGAT (site GCTTGCCCTAT),0.0066
18,GGTTGCCCATGGACCGGTTTTCCCGGTAATCCGTATTTGAT (site GGTTGCCCTAT),0.0592
19,GGTTGCCCATGGACCGGTTTTCCCGGTAATCCGTATTTGAT (site GTTTGCCCTAT),0.0119
20,GGTTTACCATGGACCGGTTTTCCCGGTAATCCGTATTTGGG (site GGTTTACCTCC),0.0308
21,GTAAAAGCATGGACCGGTTTTCCCGGTAATCCGTATTTGCC (site GTAAAAGCTGG),1.27
22,GTAAAGTCATGGACCGGTTTTCCCGGTAATCCGTATTTGCA (site GTAAAGTCTTG),2.95
23,GTAACTCCATGGACCGGTTTTCCCGGTAATCCGTATTTGTC (site GTAACTCCTGA),1.71
24,GTAAGAACATGGACCGGTTTTCCCGGTAATCCGTATTTGGC (site GTAAGAACTGC),2.33
25,GTAAGAACATGGACCGGTTTTCCCGGTAATCCGTATTTGGC (site GTCAGAACTGC),0

row,Sequence,recombinant UMI read abundance (log10)
1,GTAAGAACATGGACCGGTTTTCCCGGTAATCCGTATTTGGC (site GTGAGAACTGC),1.09
2,GTAAGAACATGGACCGGTTTTCCCGGTAATCCGTATTTGGC (site GTTAGAACTGC),1.13
3,GTAAGCCCATGGACCGGTTTTCCCGGTAATCCGTATTTGTC (site GTAAGCCCTGA),1.98
4,GTAAGCGCATGGACCGGTTTTCCCGGTAATCCGTATTTGGC (site GTAAGCGCTGC),3.26
5,GTAAGTACATGGACCGGTTTTCCCGGTAATCCGTATTTGGA (site GTAAGTACTTC),1.17
6,GTAATAACATGGACCGGTTTTCCCGGTAATCCGTATTTGGC (site GTAATAACTGC),2.43
7,GTAATACCATGGACCGGTTTTCCCGGTAATCCGTATTTGCA (site GTAATACCTTG),0
8,GTAATCGCATGGACCGGTTTTCCCGGTAATCCGTATTTGCG (site GTAATCGCTCG),1.95
9,GTAATCGCATGGACCGGTTTTCCCGGTAATCCGTATTTGCG (site GTACTCGCTCG),0.0396
10,GTAATCGCATGGACCGGTTTTCCCGGTAATCCGTATTTGCG (site GTAGTCGCTCG),0.00978
11,GTAATCGCATGGACCGGTTTTCCCGGTAATCCGTATTTGCG (site GTATTCGCTCG),0.00488
12,GTAATGGCATGGACCGGTTTTCCCGGTAATCCGTATTTGAA (site GTAATGGCTTT),2.26
13,GTAATTTCATGGACCGGTTTTCCCGGTAATCCGTATTTGCA (site GTAATTTCTTG),1.4
14,GTACACGCATGGACCGGTTTTCCCGGTAATCCGTATTTGCT (site GTACACGCTAG),2.16
15,GTACATTCATGGACCGGTTTTCCCGGTAATCCGTATTTGAT (site GTACATTCTAT),2.04
16,GTACGCCCATGGACCGGTTTTCCCGGTAATCCGTATTTGAT (site GTACGCCCTAT),0.747
17,GTACGCCCATGGACCGGTTTTCCCGGTAATCCGTATTTGCA (site GTACGCCCTTG),1.16
18,GTACGCTCATGGACCGGTTTTCCCGGTAATCCGTATTTGAA (site GTACGCTCTTT),2.11
19,GTACTAACATGGACCGGTTTTCCCGGTAATCCGTATTTGGC (site GTACTAACTGC),2.4
20,GTACTACCATGGACCGGTTTTCCCGGTAATCCGTATTTGTG (site GTACTACCTCA),0.00602
21,GTACTCGCATGGACCGGTTTTCCCGGTAATCCGTATTTGTC (site GTACTCGCTGA),2.42
22,GTAGATACATGGACCGGTTTTCCCGGTAATCCGTATTTGCC (site GTAGATACTGG),0
23,GTAGCGACATGGACCGGTTTTCCCGGTAATCCGTATTTGAG (site GTAGCGACTCT),1.28
24,GTAGGAACATGGACCGGTTTTCCCGGTAATCCGTATTTGAC (site GTAGGAACTGT),2.59
25,GTAGGAACATGGACCGGTTTTCCCGGTAATCCGTATTTGAC (site GTAGGCACTGT),1.3

row,Sequence,recombinant UMI read abundance (log10)
1,GTAGGAACATGGACCGGTTTTCCCGGTAATCCGTATTTGAC (site GTAGGGACTGT),2.24
2,GTAGGAACATGGACCGGTTTTCCCGGTAATCCGTATTTGAC (site GTAGGTACTGT),1.56
3,GTAGGCACATGGACCGGTTTTCCCGGTAATCCGTATTTGAC (site GTAGGAACTGT),1.1
4,GTAGGCACATGGACCGGTTTTCCCGGTAATCCGTATTTGAC (site GTAGGCACTGT),2.05
5,GTAGGCACATGGACCGGTTTTCCCGGTAATCCGTATTTGAC (site GTAGGGACTGT),0
6,GTAGGCACATGGACCGGTTTTCCCGGTAATCCGTATTTGAC (site GTAGGTACTGT),0.00895
7,GTAGGTACATGGACCGGTTTTCCCGGTAATCCGTATTTGAC (site ATAGGTACTGT),2.02
8,GTAGGTACATGGACCGGTTTTCCCGGTAATCCGTATTTGAC (site CTAGGTACTGT),1.95
9,GTAGGTACATGGACCGGTTTTCCCGGTAATCCGTATTTGAC (site GAAGGTACTGT),0
10,GTAGGTACATGGACCGGTTTTCCCGGTAATCCGTATTTGAC (site GCAGGTACTGT),0.704
11,GTAGGTACATGGACCGGTTTTCCCGGTAATCCGTATTTGAC (site GGAGGTACTGT),0
12,GTAGGTACATGGACCGGTTTTCCCGGTAATCCGTATTTGAC (site GTAAGTACTGT),1.98
13,GTAGGTACATGGACCGGTTTTCCCGGTAATCCGTATTTGAC (site GTACGTACTGT),0.584
14,GTAGGTACATGGACCGGTTTTCCCGGTAATCCGTATTTGAC (site GTAGATACTGT),1.54
15,GTAGGTACATGGACCGGTTTTCCCGGTAATCCGTATTTGAC (site GTAGCTACTGT),0.853
16,GTAGGTACATGGACCGGTTTTCCCGGTAATCCGTATTTGAC (site GTAGGAACTGT),1.59
17,GTAGGTACATGGACCGGTTTTCCCGGTAATCCGTATTTGAC (site GTAGGCACTGT),2.64
18,GTAGGTACATGGACCGGTTTTCCCGGTAATCCGTATTTGAC (site GTAGGGACTGT),1.8
19,GTAGGTACATGGACCGGTTTTCCCGGTAATCCGTATTTGAC (site GTAGGTACTAT),2.23
20,GTAGGTACATGGACCGGTTTTCCCGGTAATCCGTATTTGAC (site GTAGGTACTCT),0.304
21,GTAGGTACATGGACCGGTTTTCCCGGTAATCCGTATTTGAC (site GTAGGTACTGA),1.23
22,GTAGGTACATGGACCGGTTTTCCCGGTAATCCGTATTTGAC (site GTAGGTACTGC),1.5
23,GTAGGTACATGGACCGGTTTTCCCGGTAATCCGTATTTGAC (site GTAGGTACTGG),0.351
24,GTAGGTACATGGACCGGTTTTCCCGGTAATCCGTATTTGAC (site GTAGGTACTGT),2.01
25,GTAGGTACATGGACCGGTTTTCCCGGTAATCCGTATTTGAC (site GTAGGTACTTT),0

# Source: the supplement of paper PMC11208160
